Measured values from patent US20040259179A1, “Sterol markers as diagnostic tools in the prevention of atherosclerotic diseases and as tools to aid in the selection of agents to be used for the prevention and treatment of atherosclerotic disease” (priority 2003, published 2004).
Marks after values point to notes of the source that are not given here.

Columns and labels:
Format in all cases: in vivo, human
[1] = test system: patients with primary hypercholesterolemia; test: Non-cholesterol sterol analysis of plasma by GC-MS, EZE/ATORVA trial (Example 3); conditions: for effect on concentrations of sitosterol and campesterol (baseline to endpoint), in words: FIG. 11; for effect on concentrations of sitosterol and campesterol (baseline to endpoint), in words / effect on concentrations of cholesterol precursors lathosterol and desmosterol (baseline to endpoint), in words / effect on ratios of sitosterol:cholesterol and campesterol:cholesterol, in words / effect on ratios of lathosterol:cholesterol and desmosterol:cholesterol, in words: pooled doses, 12 weeks; for effect on concentrations of cholesterol precursors lathosterol and desmosterol (baseline to endpoint), in words: FIG. 13; for effect on ratios of sitosterol:cholesterol and campesterol:cholesterol, in words: Table in FIG. 11; for effect on ratios of lathosterol:cholesterol and desmosterol:cholesterol, in words: Table in FIG. 13; for Campesterol Noncholesterols:Cholesterol Ratio: Mean change / Desmosterol Noncholesterols:Cholesterol Ratio: Mean change / Lathosterol Noncholesterols:Cholesterol Ratio: Mean change / Sitosterol Noncholesterols:Cholesterol Ratio: Mean change / Campesterol % chng LSmean (absolute sterol concentrations) / Desmosterol % chng LSmean (absolute sterol concentrations) / Lathosterol % chng LSmean (absolute sterol concentrations) / Sitosterol % chng LSmean (absolute sterol concentrations): baseline to endpoint, 12 weeks daily treatment, EZE 10 mg, ATORVA pooled; for Campesterol % chng LSmean (absolute sterol concentrations) / Desmosterol % chng LSmean (absolute sterol concentrations) / Lathosterol % chng LSmean (absolute sterol concentrations) / Sitosterol % chng LSmean (absolute sterol concentrations): plasma
Method: (§1) A post-hoc analysis of a randomized, double-blind, placebo-controlled trial of primary hypercholesterolemia patients (LDL-C 145-250 mg/dl and TG<350 mg/dl) was conducted. Baseline and endpoint samples of 397 patients were analyzed by GCMS
In this trial, following a 4 week placebo lead-in/diet phase, patients with primary hypercholesterolemia (LDL-C 3.8-6.5 mmol/L [145-250 mg/dL] and TG≦4 mmol/L [350 mg/dL]) were randomized to one of the following daily treatments for 12 weeks:
Of 628 patients randomized to treatment in the original study, 397 (63%) had evaluable −70° C. plasma samples for both baseline and endpoint visits.
Concentrations of non-cholesterol sterols were measured by gas chromatography-mass spectrometry (GC-MS).
(§2) The primary efficacy parameter was mean percent change in plasma sitosterol concentration from baseline to endpoint comparing EZE/ATORVA (pooled across doses) versus ATORVA (pooled across doses). Other efficacy parameters included mean percent changes in campesterol, lathosterol and desmosterol concentrations as well as mean changes in the ratios of each of these sterols to cholesterol.
(§3) Two-tailed testing was conducted at a=0.05. To compare treatment effects on sterol concentrations and ratios, an ANCOVA model including the fixed effects of treatment, dose, and dose-by-treatment interaction was used with the baseline value as the covariate.

[2] = test system: patients with primary hypercholesterolemia; test: LDL-C and other lipid parameters by treatment, EZE/ATORVA trial (Example 3); conditions: 12 weeks daily treatment, EZE 10 mg, pooled ATORVA 10-80 mg; for Triglycerides (median) % Change (±SE) from Baseline: median and SE from raw data
Method: as §1
In this trial, following a 4 week placebo lead-in/diet phase, patients with primary hypercholesterolemia (LDL-C 3.8-6.5 mmol/L [145-250 mg/dL] and TG≦4 mmol/L [350 mg/dL]) were randomized to one of the following daily treatments for 12 weeks: […]

[3] = test system: patients with primary hypercholesterolemia; test: Non-cholesterol sterol analysis of plasma by GC-MS, EZE/SIMVA trial (Example 2); conditions: for effect on concentrations of sitosterol and campesterol (baseline to endpoint), in words: FIG. 6; for Campesterol Ratio: Mean change (sterol:cholesterol) / Desmosterol Ratio: Mean change (sterol:cholesterol) / Lathosterol Ratio: Mean change (sterol:cholesterol) / Sitosterol Ratio: Mean change (sterol:cholesterol) / Campesterol % change (Mean % change) / Desmosterol % change (Mean % change) / Lathosterol % change (Mean % change) / Sitosterol % change (Mean % change): baseline to endpoint, 12 weeks daily treatment, EZE 10 mg; for Campesterol Ratio: Mean change (sterol:cholesterol) / Desmosterol Ratio: Mean change (sterol:cholesterol) / Lathosterol Ratio: Mean change (sterol:cholesterol) / Sitosterol Ratio: Mean change (sterol:cholesterol) / Campesterol % change (Mean % change) / Desmosterol % change (Mean % change) / Lathosterol % change (Mean % change): SIMVA pool of all doses; for Campesterol % change (Mean % change) / Desmosterol % change (Mean % change) / Lathosterol % change (Mean % change) / Sitosterol % change (Mean % change): plasma concentration; for Sitosterol % change (Mean % change): SIMVA pool of all doses 10-80 mg
Method: (§4) A post-hoc analysis of a randomized, double-blind, placebo-controlled trial of primary hypercholesterolemia patients (LDL-C 145-250 mg/dl and TG≦350 mg/dl) was conducted to examine the effects of 12 weeks of daily treatment with ezetimibe (EZE) 10 mg, simvastatin (SIMVA) pooled doses 10-80 mg, or EZE 10 mg/SIMVA 10-80 mg (EZE/SIMVA) coadministration (pooled) on concentrations of phytosterols (sitosterol and campesterol) and cholesterol precursors (lathosterol and desmosterol). Baseline and endpoint plasma samples of 578 patients were analyzed by GC-mass spectrometry
Following a 4 week placebo lead-in/diet phase, patients with primary hypercholesterolemia (LDL-C 145-250 mg/dL and TG≦350 mg/dL) were randomized on one of the following daily treatments for 12 weeks:
Of 668 patients randomized to treatment in the original study, 578 (86%) had evaluable −70° C. plasma samples for both baseline and endpoint visits. Concentrations of non-cholesterol sterols were measured by gas chromatography-mass spectrometry (GC-MS).
as §2, with “EZE/SIMVA” for “EZE/ATORVA”, “SIMVA monotherapy” for “ATORVA”
as §3

[4] = test system: patients with primary hypercholesterolemia; test: LDL-C and other lipid parameters by treatment, EZE/SIMVA trial (Example 2); conditions: 12 weeks daily treatment, EZE 10 mg, pooled SIMVA 10-80 mg; for Triglycerides (median) % Change (±SE) from Baseline: median and SE from raw data
Method: as §4
Following a 4 week placebo lead-in/diet phase, patients with primary hypercholesterolemia (LDL-C 145-250 mg/dL and TG≦350 mg/dL) were randomized on one of the following daily treatments for 12 weeks: […]

Row | SMILES | effect on concentrations of sitosterol and campesterol (baseline to endpoint), in words [1] | effect on concentrations of cholesterol precursors lathosterol and desmosterol (baseline to endpoint), in words [1] | effect on ratios of sitosterol:cholesterol and campesterol:cholesterol, in words [1] | effect on ratios of lathosterol:cholesterol and desmosterol:cholesterol, in words [1] | Campesterol Noncholesterols:Cholesterol Ratio: Mean change [1] | Desmosterol Noncholesterols:Cholesterol Ratio: Mean change [1] | Lathosterol Noncholesterols:Cholesterol Ratio: Mean change [1] | Sitosterol Noncholesterols:Cholesterol Ratio: Mean change [1] | Campesterol % chng LSmean (absolute sterol concentrations) [1] | Desmosterol % chng LSmean (absolute sterol concentrations) [1] | Lathosterol % chng LSmean (absolute sterol concentrations) [1] | Sitosterol % chng LSmean (absolute sterol concentrations) [1] | HDL-C LS Mean % Change (±SE) from Baseline [2] | LDL-C LS Mean % Change (±SE) from Baseline [2] | Total Cholesterol LS Mean % Change (±SE) from Baseline [2] | Triglycerides (median) % Change (±SE) from Baseline [2] | effect on concentrations of sitosterol and campesterol (baseline to endpoint), in words ([3]; pooled doses, 12 weeks) | Campesterol Ratio: Mean change (sterol:cholesterol) [3] | Desmosterol Ratio: Mean change (sterol:cholesterol) [3] | Lathosterol Ratio: Mean change (sterol:cholesterol) [3] | other results
1 | CC(C)c1c(C(=O)Nc2ccccc2)c(-c2ccccc2)c(-c2ccc(F)cc2)n1CC[C@@H](O)C[C@@H](O)CC(=O)O [ATORVA, atorvastatin] | significantly increased | large, significant reductions | significantly increased | significantly reduced | 128*^† 10^2 mmol/mol | −34.5*^† 10^2 mmol/mol | −69.8*^† 10^2 mmol/mol | 77.4*^† 10^2 mmol/mol | 10.1^† % | −55.4*^† % | −69.0*^† % | 16.1^† % | 5.21 (0.85) % | −43.56 (1.02) % | −32.96 (0.81) % | −25.83 (1.80) % |  |  |  |  | 
2 | O=C1[C@H](CC[C@H](O)c2ccc(F)cc2)[C@@H](c2ccc(O)cc2)N1c1ccc(F)cc1 [EZE, ezetimibe] | large, significant reductions | significantly increased | significantly reduced | increased | −151* 10^2 mmol/mol | 38.1 10^2 mmol/mol | 56.2* 10^2 mmol/mol | −70.1* 10^2 mmol/mol | −58.2* % | 20.6* % | 34.5* % | −53.8* % | 5.36 (1.71) % | −17.10 (2.06) % | −12.97 (1.63) % | −2.86 (4.54) % | large, significant reductions | −78.6* 10^2 mmol/mol | 25.7* 10^2 mmol/mol | 36.8* 10^2 mmol/mol | effect on concentrations of cholesterol precursors lathosterol and desmosterol (baseline to endpoint), in words ([3]; FIG. 8, pooled doses, 12 weeks): increased; effect on ratios of sitosterol:cholesterol and campesterol:cholesterol, in words ([3]; Table in FIG. 6, pooled doses, 12 weeks): significantly reduced; effect on ratios of lathosterol:cholesterol and desmosterol:cholesterol, in words ([3]; Table in FIG. 8, pooled doses, 12 weeks): significantly increased; Sitosterol Ratio: Mean change (sterol:cholesterol) [3]: −37.8* 10^2 mmol/mol; Campesterol % change (Mean % change) [3]: −50.5* %; Desmosterol % change (Mean % change) [3]: 16.1%; Lathosterol % change (Mean % change) [3]: 35.5* %; Sitosterol % change (Mean % change) [3]: −46.5* %; HDL-C LS Mean % Change (±SE) from Baseline [4]: 5.5 ± 1.6%; LDL-C LS Mean % Change (±SE) from Baseline [4]: −18.5 ± 1.8%; Total Cholesterol LS Mean % Change (±SE) from Baseline [4]: −13.5 ± 1.4%; Triglycerides (median) % Change (±SE) from Baseline [4]: −8.6 ± 3.9%
3 | CCC(C)(C)C(=O)O[C@H]1C[C@@H](C)C=C2C=C[C@H](C)[C@H](CC[C@@H]3C[C@@H](O)CC(=O)O3)[C@H]21 [SIMVA, simvastatin] |  |  |  |  |  |  |  |  |  |  |  |  |  |  |  |  | no significant effect | 39.8* 10^2 mmol/mol | −22.8* 10^2 mmol/mol | −37.8* 10^2 mmol/mol | Sitosterol Ratio: Mean change (sterol:cholesterol) [3]: 21.4* 10^2 mmol/mol; Campesterol % change (Mean % change) [3]: −1.6* %; Desmosterol % change (Mean % change) [3]: −48.0* %; Lathosterol % change (Mean % change) [3]: −53.5* %; Sitosterol % change (Mean % change) [3]: −3.3* %; HDL-C LS Mean % Change (±SE) from Baseline [4]: 7.2 ± 0.8%; LDL-C LS Mean % Change (±SE) from Baseline [4]: −37.1 ± 0.9%; Total Cholesterol LS Mean % Change (±SE) from Baseline [4]: −26.8 ± 0.7%; Triglycerides (median) % Change (±SE) from Baseline [4]: −20.4 ± 1.5%
